# Laboratory results taken from patent US20210113602A1, “USE OF 6-THIO-2'-DEOXYGUANOSINE (6-THIO-dG) TO TREAT MELANOMA” (The Board of Regents of the University of Texas System, priority 2018, published 2021).
# Key:
# [1] = tested on: NRAS mutant melanoma cells; experiment: Telomere dysfunction-induced foci (TIF) assay; format: cell-based, human; conditions: 6-thio-dG for 7 days
# Procedure: Supplementary FIGS. 6a-b. […] NRAS mutant melanoma cells WM3000 were transduced with TERT shRNA and treated with NAC […] for 7 days. (Supplementary FIG. 6a) TIFs were assessed by indirect immunofluorescence combined with fluorescence in situ hybridization (FISH). Representative images are shown (scale bar=10 μm). (Supplementary FIG. 6b) Quantification of TIF positive cells. Cells were scored as TIF positive when three or more y-H2AS foci (green) were co-localizing with telomere foci (red). Data represent average of thirteen fields imaged +/−SD.
# Supplementary FIGS. 8a-d. NRAS mutant melanoma cells are sensitive to the telomere uncapping agent 6-thio-dG. NRAS^mut melanoma cells were treated with 6-thio-dG for 6, 12 or 18 days. (Supplementary FIG. 8a) Relative cell number was assessed by Cyrstal Violet assay and calculated relative to DMSO-treated cells. […] (Supplementary FIG. 8c) NRAS^mut cells were treated with 6-thio-dG for 7 days and telomere-induced foci (TIF) were determined by indirect immunofluorescence combined with fluorescence in situ hybridization (FISH). […] (Supplementary FIG. 8d) Quantification of TIF assay. Cells were scored as TIF-positive when four or more γ-H2AX foci (green) were co-localizing with telomere foci (red). […] P values were calculated by unpaired Student's t-test.
# DNA damage and telomere dysfunction assay (TIF). […] Mean fluorescence staining was quantified by flow cytometry. […]
# [2] = tested on: non-transformed primary human fibroblasts; experiment: Cell viability, Alamar Blue assay; format: cell-based; conditions: 7 days; telomerase negative cells
# Procedure: (§1) FIGS. 2a-h. […] (FIGS. 2a-c) NRASmut melanoma cells (FIG. 2a), BRAF-V600E/NRAS mutant cells derived from melanoma patients resistant to BRAF/MEK inhibitors (FIG. 2b), or non-transformed melanocytes and fibroblasts (FIG. 2c) were treated with 6-thio-dG for 7 days. Cell viability was measured by Alamar Blue assay and calculated relative to DMSO-treated cells. (FIG. 2d) NRASmut melanoma cells and non-transformed human fibroblasts were treated with 1 or 5 μM 6-thio-dG for 7 or 14 days. Cell death was assessed by PSVUe staining. Percent of apoptotic cells is shown. (FIG. 2e) Cells were treated with DMSO or 1 μM 6-thio-dG for 14 days and telomere length was assessed by Southern blotting of TRF. Mean TRF length expressed as kilobase pairs is indicated at the bottom. (FIGS. 2f-g) Cells were treated with 1 μM 6-thio-dG for 7 days. (FIG. 2f) ROS production was measured by H2DCFDA fluorescence and normalized to MSO treated cells. (FIG. 2g) DNA damage was assessed by γH2AX staining. […] Tumor volume was measured and average tumor volume (n=4)±SEM was plotted vs. time.
# (§2) Cell culture, viability and cell death assays. […] Cell viability was assessed following 6 hr incubation with 500 μM Alamar Blue (ThermoFisher Scientific, Waltham, Mass.) using an EnVision Xcite Multilabel plate reader (Perkin Elmer, Waltham, Mass.). […]
# [3] = tested on: non-transformed primary human melanocytes; experiment: Cell viability, Alamar Blue assay; format: cell-based; conditions: 7 days; telomerase negative cells
# Procedure: as §1, §2
smiles,measurement,setting,value
"Nc1nc2c(ncn2[C@H]2C[C@H](O)[C@@H](CO)O2)c(=S)[nH]1 [6-thio-dG, 6-thio-2′-deoxy-guanosine]",TIFs,[1],increased levels
same,cell viability,[2],did not significantly affect
same,cell viability,[3],did not significantly affect
